Experimental data from publication PMC9898036, “VIP152 is a selective CDK9 inhibitor with pre-clinical in vitro and in vivo efficacy in chronic lymphocytic leukemia” (Leukemia, 2022).
Read-outs that look alike come from different tables or passages of the source.

Key:
Assay in all cases: DiscoverX KINOMEscan kinase profiling (468 assays)
Type in all cases: binding
human kinome [1] = target: human kinome (Homo sapiens, UniProt O14733); conditions: MKK7 (Entrez MAP2K7); 100 nM; read-out: Percent Control
Method: (§1) Kinomescan Kinase Profiling Assay
(§2) Kinomescan Assay was performed at DiscoverRX and described in Fabian, et al. 2005, Nat.
(§3) Biotechnol. In brief, kinases were produced and subsequently tagged with DNA for qPCR detection.
(§4) Streptavidin-coated magnetic beads were bound to biotinylated kinase ligands to serve as a solid support.
(§5) VIP152 was dissolved in DMSO and tested across a 10 serial threefold dilution set and compared to a test
(§6) compound and a DMSO control.
(§7) Kinome map was produced via TreeSpot
(§8) Analysis from DiscoverRX. […]

human kinome [2] = target: human kinome (Homo sapiens, UniProt P00533, L858R); conditions: EGFR(L858R); 100 nM; read-out: Percent Control
Method: as §1, §2, §3, §4, §5, §6, §7, §8

human kinome [3] = target: human kinome (Homo sapiens, UniProt P04049); conditions: read-out: Percent Control
Method: as §1, §2, §3, §4, §5, §6, §7, §8

human kinome [4] = target: human kinome (Homo sapiens, UniProt P10721, V559D/V654A); conditions: KIT(V559D,V654A); 100 nM; read-out: Percent Control
Method: as §1, §2, §3, §4, §5, §6, §7, §8

human kinome [5] = target: human kinome (Homo sapiens, UniProt P21802); conditions: FGFR2; 100 nM; read-out: Percent Control
Method: as §1, §2, §3, §4, §5, §6, §7, §8

human kinome [6] = target: human kinome (Homo sapiens, UniProt P22455); conditions: FGFR4; 100 nM; read-out: Percent Control
Method: as §1, §2, §3, §4, §5, §6, §7, §8

human kinome [7] = target: human kinome (Homo sapiens, UniProt P29317); conditions: EPHA2; 100 nM; read-out: Percent Control
Method: as §1, §2, §3, §4, §5, §6, §7, §8

human kinome [8] = target: human kinome (Homo sapiens, UniProt P35626); conditions: GRK3 (Entrez ADRBK2); 100 nM; read-out: Percent Control
Method: as §1, §2, §3, §4, §5, §6, §7, §8

human kinome [9] = target: human kinome (Homo sapiens, UniProt P36894); conditions: BMPR1A; 100 nM; read-out: Percent Control
Method: as §1, §2, §3, §4, §5, §6, §7, §8

human kinome [10] = target: human kinome (Homo sapiens, UniProt P42336, C420R); conditions: read-out: Percent Control
Method: as §1, §2, §3, §4, §5, §6, §7, §8

human kinome [11] = target: human kinome (Homo sapiens, UniProt P51956); conditions: read-out: Percent Control
Method: as §1, §2, §3, §4, §5, §6, §7, §8

human kinome [12] = target: human kinome (Homo sapiens, UniProt P53779); conditions: JNK3 (Entrez MAPK10); 100 nM; read-out: Percent Control
Method: as §1, §2, §3, §4, §5, §6, §7, §8

human kinome [13] = target: human kinome (Homo sapiens, UniProt Q00526); conditions: CDK3; 100 nM; read-out: Percent Control
Method: as §1, §2, §3, §4, §5, §6, §7, §8

human kinome [14] = target: human kinome (Homo sapiens, UniProt Q02779); conditions: MLK2 (Entrez MAP3K10); 100 nM; read-out: Percent Control
Method: as §1, §2, §3, §4, §5, §6, §7, §8

human kinome [15] = target: human kinome (Homo sapiens, UniProt Q13523); conditions: read-out: Percent Control
Method: as §1, §2, §3, §4, §5, §6, §7, §8

human kinome [16] = target: human kinome (Homo sapiens, UniProt Q13555); conditions: CAMK2G; 100 nM; read-out: Percent Control
Method: as §1, §2, §3, §4, §5, §6, §7, §8

human kinome [17] = target: human kinome (Homo sapiens, UniProt Q13705); conditions: ACVR2B; 100 nM; read-out: Percent Control
Method: as §1, §2, §3, §4, §5, §6, §7, §8

human kinome [18] = target: human kinome (Homo sapiens, UniProt Q15139); conditions: read-out: Percent Control
Method: as §1, §2, §3, §4, §5, §6, §7, §8

human kinome [19] = target: human kinome (Homo sapiens, UniProt Q15835); conditions: GRK1; 100 nM; read-out: Percent Control
Method: as §1, §2, §3, §4, §5, §6, §7, §8

human kinome [20] = target: human kinome (Homo sapiens, UniProt Q8IY84); conditions: read-out: Percent Control
Method: as §1, §2, §3, §4, §5, §6, §7, §8

human kinome [21] = target: human kinome (Homo sapiens, UniProt Q8TD19); conditions: read-out: Percent Control
Method: as §1, §2, §3, §4, §5, §6, §7, §8

human kinome [22] = target: human kinome (Homo sapiens, UniProt Q8TDR2); conditions: kinase STK35 (Entrez STK35); compound concentration 1000 nM; read-out: Percent Control
Method: as §1, §2, §3, §4, §5, §6, §7, §8

human kinome [23] = target: human kinome (Homo sapiens, UniProt Q92630); conditions: DYRK2; 100 nM; read-out: Percent Control
Method: as §1, §2, §3, §4, §5, §6, §7, §8

human kinome [24] = target: human kinome (Homo sapiens, UniProt Q9BQI3); conditions: EIF2AK1; 100 nM; read-out: Percent Control
Method: as §1, §2, §3, §4, §5, §6, §7, §8

human kinome [25] = target: human kinome (Homo sapiens, UniProt Q9BX84); conditions: kinase TRPM6 (Entrez TRPM6); compound concentration 1000 nM; read-out: Percent Control
Method: as §1, §2, §3, §4, §5, §6, §7, §8

human kinome [26] = target: human kinome (Homo sapiens, UniProt Q9H2K8); conditions: kinase TAOK3 (Entrez TAOK3); compound concentration 1000 nM; read-out: Percent Control
Method: as §1, §2, §3, §4, §5, §6, §7, §8

human kinome [27] = target: human kinome (Homo sapiens, UniProt Q9HAZ1); conditions: CLK4; 100 nM; read-out: Percent Control
Method: as §1, §2, §3, §4, §5, §6, §7, §8

human kinome [28] = target: human kinome (Homo sapiens, UniProt Q9P0L2); conditions: MARK1; 100 nM; read-out: Percent Control
Method: as §1, §2, §3, §4, §5, §6, §7, §8

human kinome [29] = target: human kinome (Homo sapiens, UniProt Q9UK32); conditions: compound concentration 1000 nM, read-out: Percent Control
Method: as §1, §2, §3, §4, §5, §6, §7, §8

human kinome (Homo sapiens, UniProt Q8IY84), sequence (Q8IY84 whole entry): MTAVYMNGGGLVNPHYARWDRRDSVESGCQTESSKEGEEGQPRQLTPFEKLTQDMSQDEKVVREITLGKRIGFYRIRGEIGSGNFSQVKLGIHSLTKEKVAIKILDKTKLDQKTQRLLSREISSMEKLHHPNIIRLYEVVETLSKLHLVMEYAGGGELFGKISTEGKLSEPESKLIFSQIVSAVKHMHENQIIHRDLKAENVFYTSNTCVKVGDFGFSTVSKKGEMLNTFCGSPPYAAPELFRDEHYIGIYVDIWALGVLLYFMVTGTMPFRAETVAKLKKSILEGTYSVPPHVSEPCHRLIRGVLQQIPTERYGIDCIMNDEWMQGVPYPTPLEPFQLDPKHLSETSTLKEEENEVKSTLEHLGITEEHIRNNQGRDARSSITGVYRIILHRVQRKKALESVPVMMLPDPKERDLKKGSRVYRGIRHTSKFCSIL
human kinome (Homo sapiens, UniProt P42336, C420R), sequence (P42336 whole entry C420R): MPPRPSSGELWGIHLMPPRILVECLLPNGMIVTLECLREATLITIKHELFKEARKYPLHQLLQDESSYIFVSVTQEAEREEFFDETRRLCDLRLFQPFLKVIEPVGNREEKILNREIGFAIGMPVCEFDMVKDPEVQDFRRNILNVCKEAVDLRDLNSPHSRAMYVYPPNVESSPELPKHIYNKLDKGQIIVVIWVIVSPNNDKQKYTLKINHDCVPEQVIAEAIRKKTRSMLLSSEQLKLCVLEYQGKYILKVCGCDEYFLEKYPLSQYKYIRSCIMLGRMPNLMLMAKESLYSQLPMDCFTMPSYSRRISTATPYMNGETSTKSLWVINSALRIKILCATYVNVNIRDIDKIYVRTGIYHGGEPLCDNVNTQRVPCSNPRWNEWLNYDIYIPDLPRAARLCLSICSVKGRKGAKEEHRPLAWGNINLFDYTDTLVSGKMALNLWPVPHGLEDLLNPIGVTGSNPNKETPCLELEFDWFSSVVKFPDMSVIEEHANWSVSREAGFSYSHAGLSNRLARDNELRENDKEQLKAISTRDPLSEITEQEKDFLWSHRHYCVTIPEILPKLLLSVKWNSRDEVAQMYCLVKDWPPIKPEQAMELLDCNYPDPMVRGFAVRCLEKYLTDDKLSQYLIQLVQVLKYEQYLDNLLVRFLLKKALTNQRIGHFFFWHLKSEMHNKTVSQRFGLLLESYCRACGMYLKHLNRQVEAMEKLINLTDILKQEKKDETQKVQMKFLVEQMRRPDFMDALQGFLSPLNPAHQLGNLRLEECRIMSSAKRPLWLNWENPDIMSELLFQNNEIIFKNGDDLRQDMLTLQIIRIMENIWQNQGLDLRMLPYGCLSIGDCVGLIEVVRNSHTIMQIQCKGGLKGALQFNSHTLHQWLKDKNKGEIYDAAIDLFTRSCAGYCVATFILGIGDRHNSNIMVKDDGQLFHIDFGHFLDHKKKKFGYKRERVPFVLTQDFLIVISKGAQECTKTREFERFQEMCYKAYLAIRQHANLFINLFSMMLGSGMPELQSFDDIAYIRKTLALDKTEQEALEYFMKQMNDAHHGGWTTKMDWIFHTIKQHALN
human kinome (Homo sapiens, UniProt P51956), sequence (P51956 whole entry): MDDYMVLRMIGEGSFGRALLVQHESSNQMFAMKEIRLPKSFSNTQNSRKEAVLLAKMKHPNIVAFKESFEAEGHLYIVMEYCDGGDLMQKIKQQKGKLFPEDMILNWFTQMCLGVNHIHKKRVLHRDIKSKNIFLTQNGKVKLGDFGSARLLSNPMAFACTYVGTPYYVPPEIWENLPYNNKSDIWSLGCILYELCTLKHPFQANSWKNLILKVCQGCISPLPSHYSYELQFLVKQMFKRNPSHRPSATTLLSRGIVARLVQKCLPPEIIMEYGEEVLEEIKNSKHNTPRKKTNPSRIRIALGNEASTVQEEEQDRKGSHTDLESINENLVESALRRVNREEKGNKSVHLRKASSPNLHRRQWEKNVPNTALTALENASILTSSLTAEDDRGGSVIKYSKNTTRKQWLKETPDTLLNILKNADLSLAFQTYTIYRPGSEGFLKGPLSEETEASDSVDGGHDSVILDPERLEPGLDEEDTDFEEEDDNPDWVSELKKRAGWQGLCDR
human kinome (Homo sapiens, UniProt Q13523), sequence (Q13523 whole entry): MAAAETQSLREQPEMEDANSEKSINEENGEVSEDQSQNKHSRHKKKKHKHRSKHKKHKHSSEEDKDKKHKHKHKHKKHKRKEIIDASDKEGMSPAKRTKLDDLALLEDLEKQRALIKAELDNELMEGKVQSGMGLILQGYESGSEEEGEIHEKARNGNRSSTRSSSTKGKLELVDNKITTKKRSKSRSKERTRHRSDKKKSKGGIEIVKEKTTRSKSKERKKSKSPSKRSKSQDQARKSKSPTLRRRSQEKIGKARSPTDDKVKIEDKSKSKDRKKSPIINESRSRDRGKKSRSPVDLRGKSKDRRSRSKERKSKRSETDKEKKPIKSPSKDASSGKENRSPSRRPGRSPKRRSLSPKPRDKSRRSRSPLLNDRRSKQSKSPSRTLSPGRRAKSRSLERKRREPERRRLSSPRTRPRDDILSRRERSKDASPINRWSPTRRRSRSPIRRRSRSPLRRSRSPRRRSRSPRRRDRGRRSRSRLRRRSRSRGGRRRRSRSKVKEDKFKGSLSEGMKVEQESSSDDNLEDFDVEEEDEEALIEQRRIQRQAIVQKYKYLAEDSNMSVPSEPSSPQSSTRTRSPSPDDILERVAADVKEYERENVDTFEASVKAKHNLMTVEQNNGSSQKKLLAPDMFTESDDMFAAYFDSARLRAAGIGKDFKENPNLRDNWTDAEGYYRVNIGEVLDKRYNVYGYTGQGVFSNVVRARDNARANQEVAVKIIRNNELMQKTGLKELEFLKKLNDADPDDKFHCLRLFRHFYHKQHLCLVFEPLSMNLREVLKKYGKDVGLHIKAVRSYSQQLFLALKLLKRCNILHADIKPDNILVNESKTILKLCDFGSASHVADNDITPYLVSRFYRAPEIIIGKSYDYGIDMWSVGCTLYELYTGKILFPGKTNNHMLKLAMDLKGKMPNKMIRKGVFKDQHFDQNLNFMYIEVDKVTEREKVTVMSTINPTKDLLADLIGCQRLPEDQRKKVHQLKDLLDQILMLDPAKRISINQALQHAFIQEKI
human kinome (Homo sapiens, UniProt Q15139), sequence (Q15139 whole entry): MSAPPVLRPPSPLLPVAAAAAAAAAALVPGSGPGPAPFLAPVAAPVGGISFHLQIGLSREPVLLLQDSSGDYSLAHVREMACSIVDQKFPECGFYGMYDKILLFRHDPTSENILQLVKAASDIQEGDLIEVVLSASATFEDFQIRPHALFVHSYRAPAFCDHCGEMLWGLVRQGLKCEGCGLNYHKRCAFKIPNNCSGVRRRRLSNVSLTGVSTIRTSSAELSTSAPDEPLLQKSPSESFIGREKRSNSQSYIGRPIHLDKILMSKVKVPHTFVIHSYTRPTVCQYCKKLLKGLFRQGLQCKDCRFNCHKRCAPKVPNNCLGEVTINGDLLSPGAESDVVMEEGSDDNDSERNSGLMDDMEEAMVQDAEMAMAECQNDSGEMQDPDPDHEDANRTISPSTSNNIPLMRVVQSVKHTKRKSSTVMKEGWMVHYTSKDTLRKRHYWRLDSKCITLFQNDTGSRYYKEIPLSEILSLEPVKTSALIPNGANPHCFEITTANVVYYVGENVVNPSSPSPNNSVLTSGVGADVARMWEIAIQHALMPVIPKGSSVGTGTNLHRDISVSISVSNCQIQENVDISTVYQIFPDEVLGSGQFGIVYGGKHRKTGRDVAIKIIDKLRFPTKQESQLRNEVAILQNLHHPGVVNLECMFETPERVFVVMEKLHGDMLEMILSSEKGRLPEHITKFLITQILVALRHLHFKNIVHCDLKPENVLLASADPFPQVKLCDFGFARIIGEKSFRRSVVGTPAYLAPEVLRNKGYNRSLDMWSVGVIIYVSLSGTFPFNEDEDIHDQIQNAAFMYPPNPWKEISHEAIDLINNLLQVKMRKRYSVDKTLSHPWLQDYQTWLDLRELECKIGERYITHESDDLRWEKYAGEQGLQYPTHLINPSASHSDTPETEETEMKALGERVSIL
human kinome (Homo sapiens, UniProt P04049), sequence (P04049 whole entry): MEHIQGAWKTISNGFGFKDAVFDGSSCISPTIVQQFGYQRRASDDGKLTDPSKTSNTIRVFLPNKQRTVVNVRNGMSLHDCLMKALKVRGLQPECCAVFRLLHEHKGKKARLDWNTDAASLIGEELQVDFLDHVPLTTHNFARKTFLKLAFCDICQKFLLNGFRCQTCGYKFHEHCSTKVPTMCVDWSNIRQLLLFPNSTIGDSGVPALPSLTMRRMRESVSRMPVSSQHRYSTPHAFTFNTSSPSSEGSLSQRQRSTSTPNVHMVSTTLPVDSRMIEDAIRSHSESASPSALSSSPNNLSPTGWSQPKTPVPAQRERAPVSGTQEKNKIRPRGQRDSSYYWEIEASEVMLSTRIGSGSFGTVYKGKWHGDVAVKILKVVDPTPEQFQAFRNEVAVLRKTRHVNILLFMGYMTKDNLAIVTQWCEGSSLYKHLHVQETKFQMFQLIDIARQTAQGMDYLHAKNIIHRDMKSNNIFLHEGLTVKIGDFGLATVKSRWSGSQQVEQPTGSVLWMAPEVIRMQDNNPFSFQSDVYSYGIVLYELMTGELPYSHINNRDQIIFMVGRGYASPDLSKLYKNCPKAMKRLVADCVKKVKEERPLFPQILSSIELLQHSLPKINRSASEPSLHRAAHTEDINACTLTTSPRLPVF
human kinome (Homo sapiens, UniProt Q13705), sequence (Q13705 19-512): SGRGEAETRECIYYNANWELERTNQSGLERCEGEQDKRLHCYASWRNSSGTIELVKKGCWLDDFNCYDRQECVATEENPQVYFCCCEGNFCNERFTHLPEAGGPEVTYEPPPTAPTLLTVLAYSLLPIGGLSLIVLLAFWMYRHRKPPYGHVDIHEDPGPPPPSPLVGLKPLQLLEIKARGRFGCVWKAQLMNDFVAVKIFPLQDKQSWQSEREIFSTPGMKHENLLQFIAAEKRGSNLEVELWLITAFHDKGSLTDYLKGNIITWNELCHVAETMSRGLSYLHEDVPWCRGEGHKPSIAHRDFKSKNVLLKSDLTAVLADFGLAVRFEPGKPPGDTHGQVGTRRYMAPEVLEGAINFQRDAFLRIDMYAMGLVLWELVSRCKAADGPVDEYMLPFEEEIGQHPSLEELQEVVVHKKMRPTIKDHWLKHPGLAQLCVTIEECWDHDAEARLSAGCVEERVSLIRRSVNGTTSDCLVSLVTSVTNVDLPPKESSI

For `COc1cc(F)ccc1-c1cc(Nc2cc(CS(C)(=N)=O)ccn2)ncc1F` (stereo not shown) [VIP152], which remaining binding at 0.1 µM (human kinome [1]) is on record?
The remaining binding at 0.1 µM was 86%.

And the remaining binding at 0.1 µM (human kinome [2])?
Its remaining binding at 0.1 µM is 100%.

And the remaining binding at 0.1 µM (human kinome [3]; RAF1, 100 nM)?
The remaining binding at 0.1 µM was 100%.

What about the remaining binding at 1 µM (human kinome [3]; kinase RAF1 (Entrez RAF1), compound concentration 1000 nM) of the same molecule?
The remaining binding at 1 µM was 96%.

And the remaining binding at 0.1 µM (human kinome [4])?
The remaining binding at 0.1 µM was 100%.

What about the remaining binding at 0.1 µM (human kinome [5]) of the same molecule?
Its remaining binding at 0.1 µM is 100%.

And the remaining binding at 0.1 µM (human kinome [6])?
Its remaining binding at 0.1 µM is 100%.

And the remaining binding at 0.1 µM (human kinome [7])?
Its remaining binding at 0.1 µM is 92%.

And the remaining binding at 0.1 µM (human kinome [8])?
Its remaining binding at 0.1 µM is 89%.

What about the remaining binding at 0.1 µM (human kinome [9]) of the same molecule?
The remaining binding at 0.1 µM was 100%.

What about the remaining binding at 0.1 µM (human kinome [10]; PIK3CA(C420R), 100 nM) of the same molecule?
Its remaining binding at 0.1 µM is 98%.

And the remaining binding at 1 µM (human kinome [10]; kinase PIK3CA(C420R) (Entrez PIK3CA), compound concentration 1000 nM)?
Its remaining binding at 1 µM is 92%.

And the remaining binding at 0.1 µM (human kinome [11]; NEK3, 100 nM)?
Its remaining binding at 0.1 µM is 98%.

And the remaining binding at 1 µM (human kinome [11]; kinase NEK3 (Entrez NEK3), compound concentration 1000 nM)?
The remaining binding at 1 µM was 62%.

What about the remaining binding at 0.1 µM (human kinome [12]) of the same molecule?
The remaining binding at 0.1 µM was 94%.

And the remaining binding at 0.1 µM (human kinome [13])?
The remaining binding at 0.1 µM was 100%.

What about the remaining binding at 0.1 µM (human kinome [14]) of the same molecule?
Its remaining binding at 0.1 µM is 100%.

And the remaining binding at 0.1 µM (human kinome [15]; PRP4 (Entrez PRPF4B), 100 nM)?
The remaining binding at 0.1 µM was 87%.

And the remaining binding at 1 µM (human kinome [15]; kinase PRP4 (Entrez PRPF4B), compound concentration 1000 nM)?
The remaining binding at 1 µM was 71%.

What about the remaining binding at 0.1 µM (human kinome [16]) of the same molecule?
The remaining binding at 0.1 µM was 100%.

What about the remaining binding at 0.1 µM (human kinome [17]) of the same molecule?
Its remaining binding at 0.1 µM is 89%.

What about the remaining binding at 0.1 µM (human kinome [18]; PRKD1, 100 nM) of the same molecule?
Its remaining binding at 0.1 µM is 71%.

And the remaining binding at 1 µM (human kinome [18]; kinase PRKD1 (Entrez PRKD1), compound concentration 1000 nM)?
The remaining binding at 1 µM was 100%.

What about the remaining binding at 0.1 µM (human kinome [19]) of the same molecule?
The remaining binding at 0.1 µM was 95%.

And the remaining binding at 0.1 µM (human kinome [20]; NIM1 (Entrez MGC42105), 100 nM)?
The remaining binding at 0.1 µM was 100%.

What about the remaining binding at 1 µM (human kinome [20]; kinase NIM1 (Entrez MGC42105), compound concentration 1000 nM) of the same molecule?
Its remaining binding at 1 µM is 86%.

What about the remaining binding at 0.1 µM (human kinome [21]; NEK9, 100 nM) of the same molecule?
The remaining binding at 0.1 µM was 100%.

And the remaining binding at 1 µM (human kinome [21]; kinase NEK9 (Entrez NEK9), compound concentration 1000 nM)?
The remaining binding at 1 µM was 93%.

What about the remaining binding at 1 µM (human kinome [22]) of the same molecule?
The remaining binding at 1 µM was 95%.

What about the remaining binding at 0.1 µM (human kinome [23]) of the same molecule?
The remaining binding at 0.1 µM was 99%.

What about the remaining binding at 0.1 µM (human kinome [24]) of the same molecule?
Its remaining binding at 0.1 µM is 100%.

What about the remaining binding at 1 µM (human kinome [25]) of the same molecule?
Its remaining binding at 1 µM is 96%.

And the remaining binding at 1 µM (human kinome [26])?
The remaining binding at 1 µM was 57%.

What about the remaining binding at 0.1 µM (human kinome [27]) of the same molecule?
The remaining binding at 0.1 µM was 100%.

What about the remaining binding at 0.1 µM (human kinome [28]) of the same molecule?
The remaining binding at 0.1 µM was 82%.

And the remaining binding at 1 µM (human kinome [29]; kinase RSK4(Kin.Dom.1-N-terminal) (Entrez RPS6KA6))?
The remaining binding at 1 µM was 94%.

And the remaining binding at 1 µM (human kinome [29]; kinase RSK4(Kin.Dom.2-C-terminal) (Entrez RPS6KA6))?
The remaining binding at 1 µM was 89%.
